This test concerns the target T1, HDAC6 enzyme (Homo sapiens, UniProt Q9UBN7).
T1 construct: prepared by transducing full length HDAC1 and HDAC6 genes into Sf-9 insect cells; GST; purchased SignalChem; host or cells: Sf-9 insect cells
T1 sequence (Q9UBN7 1-1215): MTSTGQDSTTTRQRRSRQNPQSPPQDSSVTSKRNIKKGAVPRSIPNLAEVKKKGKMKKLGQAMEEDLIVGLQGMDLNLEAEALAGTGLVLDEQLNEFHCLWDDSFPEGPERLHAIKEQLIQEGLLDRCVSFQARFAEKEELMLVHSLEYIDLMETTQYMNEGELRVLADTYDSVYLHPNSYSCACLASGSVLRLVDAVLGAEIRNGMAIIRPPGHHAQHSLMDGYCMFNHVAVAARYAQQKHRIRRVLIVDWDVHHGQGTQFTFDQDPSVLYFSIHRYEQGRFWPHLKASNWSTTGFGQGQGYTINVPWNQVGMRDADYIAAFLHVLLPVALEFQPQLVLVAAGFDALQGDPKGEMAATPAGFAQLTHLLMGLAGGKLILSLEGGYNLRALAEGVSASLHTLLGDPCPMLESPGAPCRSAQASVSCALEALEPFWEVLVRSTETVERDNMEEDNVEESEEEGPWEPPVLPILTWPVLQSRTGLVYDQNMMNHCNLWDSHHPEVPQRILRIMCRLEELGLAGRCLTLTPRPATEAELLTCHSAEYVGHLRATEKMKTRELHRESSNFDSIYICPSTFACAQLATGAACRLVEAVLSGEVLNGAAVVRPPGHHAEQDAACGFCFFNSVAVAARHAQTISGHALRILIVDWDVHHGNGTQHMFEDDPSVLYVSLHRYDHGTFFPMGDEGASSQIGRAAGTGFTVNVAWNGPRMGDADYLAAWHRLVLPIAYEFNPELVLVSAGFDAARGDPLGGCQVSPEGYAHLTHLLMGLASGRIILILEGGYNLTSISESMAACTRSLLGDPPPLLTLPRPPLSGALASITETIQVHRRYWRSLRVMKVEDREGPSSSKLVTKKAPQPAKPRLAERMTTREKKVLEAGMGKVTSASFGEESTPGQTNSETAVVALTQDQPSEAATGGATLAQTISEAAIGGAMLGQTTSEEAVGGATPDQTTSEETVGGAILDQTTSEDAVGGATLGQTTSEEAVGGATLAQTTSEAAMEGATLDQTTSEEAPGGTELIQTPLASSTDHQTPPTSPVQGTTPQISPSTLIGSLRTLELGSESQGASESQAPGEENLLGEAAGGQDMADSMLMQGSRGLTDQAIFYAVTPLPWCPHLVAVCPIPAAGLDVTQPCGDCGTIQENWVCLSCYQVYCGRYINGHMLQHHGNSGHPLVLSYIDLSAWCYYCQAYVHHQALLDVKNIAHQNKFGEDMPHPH
Put plainly: HDAC6 enzyme inhibitory assay (HDAC-Glo I/II Assay kit). In kind it is biochemical. To be noted: 1 μM test compound; read-out: HDAC6 inhibitory rate (%) (1 μM). The procedure: HDAC1 enzyme and HDAC6 enzyme each prepared by transducing full length HDAC1 and HDAC6 genes into Sf-9 insect cells and purifying by GST affinity column were purchased from SignalChem. Using these enzymes, HDAC1 and/or HDAC6 enzyme inhibitory activities of the compound of the present invention were evaluated. Enzymes were used after preserved at −70° C. HDAC1 or HDAC6 enzyme inhibitory activity of the compound of the present invention was measured using HDAC-Glo™ I/II Assay kit (Promega) according to the following experimental method. The test compound diluted with assay buffer (24 mM Tris-HCl (pH 7.5), 1 mM MgCl2, 0.35 mM KCl, 135 mM NaCl, 0.6 mM Glutathione, 0.01% Tween-20) was added to a 384-well plate by each 2 μL. Then, HDAC1 or HDAC6 enzyme solution diluted with assay buffer was added thereto by each 4 μL, and the plate was incubated at room temperature for 60 min. After incubated, HDAC substrate-Developer solution prepared according to Promega protocol attached to the assay kit was added to the 384-well plate by each 2 μL, and the enzyme reaction was started. After reacting at room temperature for 20 min, luminescence level was measured using plate reader Envision (PerkinElmer). The inhibitory activity of each compound was calculated as a relative activity value when luminescence level in wells without enzyme is considered as 100% inhibition.

For the molecule `O=C(NC[C@H]1COCCN1C(=O)C1CCCO1)c1ccc(-c2noc(C(F)(F)F)n2)cc1` (stereo partly drawn) [Example 78, N-(((3S)-4-(tetrahydrofuran-2-ylcarbonyl)morpholin-3-yl)methyl)-4-(5-(trifluoromethyl)-1,2,4-oxadiazol-3-yl)benzamide], the inhibition at 1 µM amounted to 88%.

`O=C(NC[C@H]1COCCN1C(=O)C1CCOC1)c1ccc(-c2noc(C(F)(F)F)n2)cc1` (stereo partly drawn) [Example 79, N-(((3S)-4-(tetrahydrofuran-3-ylcarbonyl)morpholin-3-yl)methyl)-4-(5-(trifluoromethyl)-1,2,4-oxadiazol-3-yl)benzamide]: the inhibition at 1 µM was 94%.

For the molecule `O=C(NC[C@H]1COCCN1C(=O)C1CCOCC1)c1ccc(-c2noc(C(F)(F)F)n2)cc1` [Example 81, N-(((3S)-4-(tetrahydro-2H-pyran-4-ylcarbonyl)morpholin-3-yl)methyl)-4-(5-(trifluoromethyl)-1,2,4-oxadiazol-3-yl)benzamide], the inhibition at 1 µM is 94%.

As for `Cc1cc(C(=O)N2CCOC[C@H]2CNC(=O)c2ccc(-c3noc(C(F)(F)F)n3)cc2)cc(O)n1` [Example 122, N-(((3R)-4-(2-hydroxy-6-methylisonicotinoyl)morpholin-3-yl)methyl)-4-(5-(trifluoromethyl)-1,2,4-oxadiazol-3-yl)benzamide], the inhibition at 1 µM is 36%.

As to `O=C(NC[C@@H]1COCCN1C(=O)c1ccc(OCC(F)(F)F)nc1)c1ccc(-c2noc(C(F)(F)F)n2)cc1` [Example 123, N-(((3R)-4-((6-(2,2,2-trifluoroethoxy)pyridin-3-yl)carbonyl)morpholin-3-yl)methyl)-4-(5-(trifluoromethyl)-1,2,4-oxadiazol-3-yl)benzamide], the inhibition at 1 µM was found to be 95%.

For the molecule `O=C(NC[C@@H]1COCCN1C(=O)C1CCc2ccccc2O1)c1ccc(-c2noc(C(F)(F)F)n2)cc1` (stereo partly drawn) [Example 124, N-(((3R)-4-(3,4-dihydro-2H-chromen-2-ylcarbonyl)morpholin-3-yl)methyl)-4-(5-(trifluoromethyl)-1,2,4-oxadiazol-3-yl)benzamide], the inhibition at 1 µM turned out to be 90%.

As for `O=C(NC[C@@H]1COCCN1C(=O)c1cc2ncccn2n1)c1ccc(-c2noc(C(F)(F)F)n2)cc1` [Example 126, N-(((3R)-4-(pyrazolo[1,5-a]pyrimidin-2-ylcarbonyl)morpholin-3-yl)methyl)-4-(5-(trifluoromethyl)-1,2,4-oxadiazol-3-yl)benzamide], the inhibition at 1 µM was 88%.

Consider `N#CC1(C(=O)N2CCOC[C@H]2CNC(=O)c2ccc(-c3noc(C(F)(F)F)n3)cc2)CC1` [Example 127, N-(((3R)-4-((1-cyanocyclopropyl)carbonyl)morpholin-3-yl)methyl)-4-(5-(trifluoromethyl)-1,2,4-oxadiazol-3-yl)benzamide], for which the inhibition at 1 µM was 90%.

`O=C(NC[C@@H]1COCCN1C(=O)C(c1ccccc1)c1ccccc1)c1ccc(-c2noc(C(F)(F)F)n2)cc1` [Example 129, N-(((3R)-4-(diphenylacetyl)morpholin-3-yl)methyl)-4-(5-(trifluoromethyl)-1,2,4-oxadiazol-3-yl)benzamide]: the inhibition at 1 µM was 53%.

For `O=C(NC[C@@H]1COCCN1C(=O)COc1ccccc1)c1ccc(-c2noc(C(F)(F)F)n2)cc1` [Example 130, N-(((3R)-4-(phenoxyacetyl)morpholin-3-yl)methyl)-4-(5-(trifluoromethyl)-1,2,4-oxadiazol-3-yl)benzamide], the inhibition at 1 µM worked out at 94%.

Consider `Cc1oncc1C(=O)N1CCOC[C@H]1CNC(=O)c1ccc(-c2noc(C(F)(F)F)n2)cc1` [Example 131, N-(((3R)-4-((5-methyl-1,2-oxazol-4-yl)carbonyl)morpholin-3-yl)methyl)-4-(5-(trifluoromethyl)-1,2,4-oxadiazol-3-yl)benzamide], for which the inhibition at 1 µM is 87%.

On to `Cc1cc(C(=O)N2CCOC[C@H]2CNC(=O)c2ccc(-c3noc(C(F)(F)F)n3)cc2)n(C)n1` [Example 135, N-(((3R)-4-((1,3-dimethyl-1H-pyrazol-5-yl)carbonyl)morpholin-3-yl)methyl)-4-(5-(trifluoromethyl)-1,2,4-oxadiazol-3-yl)benzamide], for which the inhibition at 1 µM amounted to 91%.

As to `Cn1nc(C(F)(F)F)cc1C(=O)N1CCOC[C@H]1CNC(=O)c1ccc(-c2noc(C(F)(F)F)n2)cc1` [Example 136, N-(((3R)-4-((1-methyl-3-(trifluoromethyl)-1H-pyrazol-5-yl)carbonyl)morpholin-3-yl)methyl)-4-(5-(trifluoromethyl)-1,2,4-oxadiazol-3-yl)benzamide], the inhibition at 1 µM is 92%.

As for `Cn1ccc(C(=O)N2CCOC[C@H]2CNC(=O)c2ccc(-c3noc(C(F)(F)F)n3)cc2)n1` [Example 137, N-(((3R)-4-((1-methyl-1H-pyrazol-3-yl)carbonyl)morpholin-3-yl)methyl)-4-(5-(trifluoromethyl)-1,2,4-oxadiazol-3-yl)benzamide], the inhibition at 1 µM amounted to 93%.

For the molecule `Cn1cc(C(=O)N2CCOC[C@H]2CNC(=O)c2ccc(-c3noc(C(F)(F)F)n3)cc2)cn1` [Example 138, N-(((3R)-4-((1-methyl-1H-pyrazol-4-yl)carbonyl)morpholin-3-yl)methyl)-4-(5-(trifluoromethyl)-1,2,4-oxadiazol-3-yl)benzamide], the inhibition at 1 µM came to 85%.

For the molecule `Cc1nn(C)c(C)c1C(=O)N1CCOC[C@H]1CNC(=O)c1ccc(-c2noc(C(F)(F)F)n2)cc1` [Example 139, 4-(5-(trifluoromethyl)-1,2,4-oxadiazol-3-yl)-N-(((3R)-4-((1,3,5-trimethyl-1H-pyrazol-4-yl)carbonyl)morpholin-3-yl)methyl)benzamide], the inhibition at 1 µM was determined as 63%.

With `Cc1nnsc1C(=O)N1CCOC[C@H]1CNC(=O)c1ccc(-c2noc(C(F)(F)F)n2)cc1` [Example 140, N-(((3R)-4-((4-methyl-1,2,3-thiadiazol-5-yl)carbonyl)morpholin-3-yl)methyl)-4-(5-(trifluoromethyl)-1,2,4-oxadiazol-3-yl)benzamide], the inhibition at 1 µM came to 92%.

Consider `Cc1ncsc1C(=O)N1CCOC[C@H]1CNC(=O)c1ccc(-c2noc(C(F)(F)F)n2)cc1` [Example 141, N-(((3R)-4-((4-methyl-1,3-thiazol-5-yl)carbonyl)morpholin-3-yl)methyl)-4-(5-(trifluoromethyl)-1,2,4-oxadiazol-3-yl)benzamide], for which the inhibition at 1 µM was determined as 89%.

For `O=C(NC[C@@H]1COCCN1C(=O)c1cc[nH]n1)c1ccc(-c2noc(C(F)(F)F)n2)cc1` [Example 143, N-(((3R)-4-(1H-pyrazol-3-ylcarbonyl)morpholin-3-yl)methyl)-4-(5-(trifluoromethyl)-1,2,4-oxadiazol-3-yl)benzamide], the inhibition at 1 µM was determined as 93%.

Regarding `Cc1ccsc1C(=O)N1CCOC[C@H]1CNC(=O)c1ccc(-c2noc(C(F)(F)F)n2)cc1` [Example 146, N-(((3R)-4-((3-methyl-2-thienyl)carbonyl)morpholin-3-yl)methyl)-4-(5-(trifluoromethyl)-1,2,4-oxadiazol-3-yl)benzamide], the inhibition at 1 µM was 94%.

Regarding `O=C(NC[C@@H]1COCCN1C(=O)C1CCCO1)c1ccc(-c2noc(C(F)(F)F)n2)cc1` (stereo partly drawn) [Example 150, N-(((3R)-4-(tetrahydrofuran-2-ylcarbonyl)morpholin-3-yl)methyl)-4-(5-(trifluoromethyl)-1,2,4-oxadiazol-3-yl)benzamide], the inhibition at 1 µM was determined as 90%.

The record behind these values is US10081624B2, “Heterocyclic compound” (Takeda Pharmaceutical Company Limited, priority 2014, dated 2018).
